US20040132707A1, “Catecholate beta-lactam conjugates, method for producing the same and the use thereof” (Gruenenthal GmbH, priority 2001, published 2004)
≈ marks a conversion by molar mass, not a printed value.

What was measured:
Assay in all cases: Microdilution MIC assay (NCCLS M7-A)
Format in all cases: cell-based
[1] = test system: Escherichia coli ATCC 25922; details: strain ATCC 25922; for MIC: Escherichia coli, ATCC25922, read-out: MIC E. coli ATCC 25922
Method: (§1) The antibacterial activity was tested by a microdilution assay according to National Committee for Clinical Laboratory Standards, 1998, Methods for dilution antimicrobial susceptibility tests for bacteria that grow aerobically, Approved standard M7-A, NCCLS, Villanova, Pa.
(§2) The minimal inhibition concentrations (MICs) were determined for the following bacterial strains: The Gram-negative strains Pseudomonas aeruginosa SG 137, ATCC 27853, Escherichia coli ATCC 25922, Klebsiella pneumoniae ATCC 10031, Stenotrophomonas maltophilia GN 12873, Serratia marcescens SG 621 as well as for the Gram-positive strain Staphylococcus aureus SG 511.

[2] = test system: Klebsiella pneumoniae ATCC 10031; details: strain ATCC10031; for MIC: Klebsiella pneumoniae
Method: as §1, §2

[3] = test system: Pseudomonas aeruginosa ATCC 27853; details: strain ATCC 27853; for MIC: Pseudomonas aeruginosa, ATCC27853
Method: as §1, §2

[4] = test system: Pseudomonas aeruginosa SG 137; details: strain SG137; for MIC: Pseudomonas aeruginosa
Method: as §1, §2

[5] = test system: Serratia marcescens SG 621; details: strain SG621; for MIC: Serratia marcescens, read-out: MIC Serratia marc. SG621
Method: as §1, §2

[6] = test system: Staphylococcus aureus SG 511; details: strain SG511; for MIC: Staphylococcus aureus, read-out: MIC Staph. aureus SG511
Method: as §1, §2

[7] = test system: Stenotrophomonas maltophilia GN 12873; details: strain GN12873; for MIC: Stenotrophomonas maltophilia, read-out: MIC Stenotroph. maltoph. GN12873
Method: as §1, §2

Row | SMILES | MIC E. coli ATCC 25922 [1] | MIC Klebsiella pneumoniae ATCC10031 [2] | MIC Pseudomonas aeruginosa ATCC 27853 [3] | MIC Pseudomonas aeruginosa SG137 [4] | MIC Serratia marc. SG621 [5] | MIC Staph. aureus SG511 [6] | MIC Stenotroph. maltoph. GN12873 [7] | MIC [1] | MIC [2] | MIC [3] | MIC [4] | MIC [5] | MIC [6] | MIC [7]
1 | CC(=O)Oc1cccc(C(=O)NCCN(CCNC(=O)c2cccc(OC(C)=O)c2OC(C)=O)CCN(Cc2ccc(C(=O)NC(C(=O)NC3C(=O)N4C3SC(C)(C)C4C(=O)O)c3ccccc3)cc2)C(=O)c2cccc(OC(C)=O)c2OC(C)=O)c1OC(C)=O (stereo not drawn) [Example 15] | 0.78 mg/L (≈ 0.613 µM) | 0.1 mg/L (≈ 0.0786 µM) | 0.2 mg/L (≈ 0.157 µM) | <0.05 mg/L | 0.4 mg/L (≈ 0.314 µM) | 0.78 mg/L (≈ 0.613 µM) | <0.05 mg/L |  |  |  |  |  |  | 
2 | COC(=O)Oc1cccc(C(=O)N(C)CCCN(Cc2ccc(C(=O)NC(C(=O)NC3C(=O)N4C3SC(C)(C)C4C(=O)O)c3ccccc3)cc2)C(=O)c2cccc(OC(=O)OC)c2OC(=O)OC)c1OC(=O)OC (stereo not drawn) [Example 16, N-{4-[2,6-bis-(2,3-di-methoxycarbonyloxybenzoyl)-2,6-diaza-heptyl]-benzoyl}-ampicillin] | 0.4 mg/L (≈ 0.378 µM) | 0.1 mg/L (≈ 0.0945 µM) | 0.78 mg/L (≈ 0.737 µM) | <0.05 mg/L | 1.56 mg/L (≈ 1.47 µM) | 1.56 mg/L (≈ 1.47 µM) | <0.05 mg/L |  |  |  |  |  |  | 
3 | CC(=O)Oc1cccc(C(=O)NCCCCN(Cc2ccc(OCC(=O)NC(C(=O)NC3C(=O)N4C3SC(C)(C)C4C(=O)O)c3ccccc3)cc2)C(=O)c2cccc(OC(C)=O)c2OC(C)=O)c1OC(C)=O (stereo not drawn) [Example 17, N-{4-[2,7-Bis-(2,3-diacetoxybenzoyl)-2,7-diaza-heptyl]-phenoxyacetyl}-ampicillin] | 0.78 mg/L (≈ 0.762 µM) | <0.05 mg/L | 6.25 mg/L (≈ 6.1 µM) | 0.2 mg/L (≈ 0.195 µM) | 6.25 mg/L (≈ 6.1 µM) | 1.56 mg/L (≈ 1.52 µM) | 0.2 mg/L (≈ 0.195 µM) |  |  |  |  |  |  | 
4 | CC(=O)Oc1cccc(C(=O)NCCCCN(Cc2ccccc2C(=O)NC(C(=O)NC2C(=O)N3C2SC(C)(C)C3C(=O)O)c2ccccc2)C(=O)c2cccc(OC(C)=O)c2OC(C)=O)c1OC(C)=O (stereo not drawn) [Example 18, N-{2-[2,7-Bis-(2,3-diacetoxybenzoyl)-2,7-diaza-heptyl]-benzooyl}-ampicillin] | 0.4 mg/L (≈ 0.402 µM) | <0.05 mg/L | 0.2 mg/L (≈ 0.201 µM) | 0.04 mg/L (≈ 0.0402 µM) | 0.24 mg/L (≈ 0.241 µM) | 6.25 mg/L (≈ 6.29 µM) | <0.05 mg/L |  |  |  |  |  |  | 
5 | CC(=O)Oc1cccc(C(=O)N(C)CCCN(Cc2ccccc2C(=O)N[C@@H](C(=O)N[C@@H]2C(=O)N3[C@@H]2SC(C)(C)[C@@H]3C(=O)O)c2ccccc2)C(=O)c2cccc(OC(C)=O)c2OC(C)=O)c1OC(C)=O [Example 19, N-{2-[2,6-Bis-(2,3-diacetoxybenzoyl)-2,6-diaza-heptyl]-benzoyl}-ampicillin] | 0.78 mg/L (≈ 0.785 µM) | 0.1 mg/L (≈ 0.101 µM) | 3.12 mg/L (≈ 3.14 µM) | 0.1 mg/L (≈ 0.101 µM) | 0.78 mg/L (≈ 0.785 µM) | 1.56 mg/L (≈ 1.57 µM) | 0.2 mg/L (≈ 0.201 µM) |  |  |  |  |  |  | 
6 | CC(=O)Oc1cccc(C(=O)NCCCN(CCN(CCCN(Cc2ccc(C(=O)N[C@@H](C(=O)N[C@@H]3C(=O)N4[C@@H]3SC(C)(C)[C@@H]4C(=O)O)c3ccccc3)cc2)C(=O)c2cccc(OC(C)=O)c2OC(C)=O)C(=O)c2cccc(OC(C)=O)c2OC(C)=O)C(=O)c2cccc(OC(C)=O)c2OC(C)=O)c1OC(C)=O [Example 20, N-{4-[2,6,9,13-Tetrakis-(2,3-diacetoxybenzoyl)-2,6,9,13-tetraaza-tridecyl]-benzoyl}-ampicillin] | 1.56 mg/L (≈ 1.03 µM) | 0.78 mg/L (≈ 0.513 µM) | 1.56 mg/L (≈ 1.03 µM) | 0.4 mg/L (≈ 0.263 µM) | 1.56 mg/L (≈ 1.03 µM) | 6.25 mg/L (≈ 4.11 µM) | 0.2 mg/L (≈ 0.132 µM) |  |  |  |  |  |  | 
7 | COc1ccc(CN(CCCCNC(=O)c2cccc(OC(C)=O)c2OC(C)=O)C(=O)c2cccc(OC(C)=O)c2OC(C)=O)c(C(=O)N[C@@H](C(=O)N[C@@H]2C(=O)N3[C@@H]2SC(C)(C)[C@@H]3C(=O)O)c2ccccc2)c1OC [Example 21, N-{6-[2,7-Bis-(2,3-Diacetoxybenzoyl)-2,7-diaza-heptyl]-2,3-dimethoxy-benzoyl}-ampicillin] | 3.12 mg/L (≈ 2.96 µM) | 0.4 mg/L (≈ 0.379 µM) | 12.5 mg/L (≈ 11.9 µM) | 0.78 mg/L (≈ 0.74 µM) | 1.56 mg/L (≈ 1.48 µM) | 0.2 mg/L (≈ 0.19 µM) | 0.2 mg/L (≈ 0.19 µM) |  |  |  |  |  |  | 
8 | COC(=O)Oc1cccc(C(=O)N(C)CCCN(Cc2ccccc2C(=O)N[C@@H](C(=O)N[C@@H]2C(=O)N3[C@@H]2SC(C)(C)[C@@H]3C(=O)O)c2ccccc2)C(=O)c2cccc(OC(=O)OC)c2OC(=O)OC)c1OC(=O)OC [Example 22, N-{2-[2,6-Bis-(2,3-di-methoxycarbonyloxy-benzoyl)-2,6-diaza-heptyl]-benzoyl}-ampicillin] | 1.56 mg/L (≈ 1.47 µM) | 0.4 mg/L (≈ 0.378 µM) | 0.4 mg/L (≈ 0.378 µM) | 0.2 mg/L (≈ 0.189 µM) | 0.78 mg/L (≈ 0.737 µM) | 6.25 mg/L (≈ 5.91 µM) | <0.05 mg/L |  |  |  |  |  |  | 
9 | CC(=O)Oc1cccc(C(=O)NCCCN(CCCN(Cc2ccccc2C(=O)N[C@@H](C(=O)N[C@@H]2C(=O)N3[C@@H]2SC(C)(C)[C@@H]3C(=O)O)c2ccccc2)C(=O)c2cccc(OC(C)=O)c2OC(C)=O)C(=O)c2cccc(OC(C)=O)c2OC(C)=O)c1OC(C)=O [Example 23, N-{2-[2,6,10-Tris-(2,3-diacetoxybenzoyl)-2,6,10-triaza-decyl]-benzoyl}-ampicillin] | 6.25 mg/L (≈ 4.97 µM) | 0.78 mg/L (≈ 0.62 µM) | 1.56 mg/L (≈ 1.24 µM) | 0.78 mg/L (≈ 0.62 µM) | 3.12 mg/L (≈ 2.48 µM) | 12.5 mg/L (≈ 9.94 µM) | 0.2 mg/L (≈ 0.159 µM) |  |  |  |  |  |  | 
10 | CC(=O)Oc1cccc(C(=O)NCCCN(CC(=O)NC(C(=O)NC2C(=O)N3C2SC(C)(C)C3C(=O)O)c2ccccc2)C(=O)c2cccc(OC(C)=O)c2OC(C)=O)c1OC(C)=O (stereo not drawn) [Example 24, N-[3,7-Bis-(2,3-diacetoxybenzoyl)-3,7-diaza-heptanoyl]-ampicillin] | 3.12 mg/L (≈ 3.45 µM) | 0.2 mg/L (≈ 0.221 µM) | 3.12 mg/L (≈ 3.45 µM) | 3.12 mg/L (≈ 3.45 µM) | 0.78 mg/L (≈ 0.863 µM) | 3.12 mg/L (≈ 3.45 µM) | 0.2 mg/L (≈ 0.221 µM) |  |  |  |  |  |  | 
11 | CC(=O)Oc1cccc(C(=O)NCCCCCN(CC(=O)NC(C(=O)NC2C(=O)N3C2SC(C)(C)C3C(=O)O)c2ccccc2)C(=O)c2cccc(OC(C)=O)c2OC(C)=O)c1OC(C)=O (stereo not drawn) [Example 25, N-[3,9-Bis-(2,3-diacetoxybenzoyl)-3,9-diaza-nonanoyl]-ampicillin] | 0.16 mg/L (≈ 0.172 µM) | <0.005 mg/L | 0.16 mg/L (≈ 0.172 µM) | 0.04 mg/L (≈ 0.0429 µM) | 0.04 mg/L (≈ 0.0429 µM) | 2.5 mg/L (≈ 2.68 µM) | 0.02 mg/L (≈ 0.0215 µM) |  |  |  |  |  |  | 
12 | CC(=O)Oc1cccc(C(=O)NCCN(CC(=O)N[C@@H](C(=O)N[C@@H]2C(=O)N3[C@@H]2SC(C)(C)[C@@H]3C(=O)O)c2ccccc2)C(=O)c2cccc(OC(C)=O)c2OC(C)=O)c1OC(C)=O [Example 26, N-[3,6-Bis-(2,3-diacetoxybenzoyl)-3,6-diaza-hexanoyl]-ampicillin] | 0.78 mg/L (≈ 0.877 µM) | 0.1 mg/L (≈ 0.112 µM) | 0.78 mg/L (≈ 0.877 µM) | 0.4 mg/L (≈ 0.449 µM) | 0.78 mg/L (≈ 0.877 µM) | 3.12 mg/L (≈ 3.51 µM) | 0.78 mg/L (≈ 0.877 µM) |  |  |  |  |  |  | 
13 | CC1(C)S[C@@H]2[C@H](NC(=O)[C@H](N)c3ccccc3)C(=O)N2[C@H]1C(=O)O [ampicillin, reference compound] |  |  |  |  |  |  |  | 6.25 mg/L (≈ 17.9 µM) | 6.25 mg/L (≈ 17.9 µM) | > 100 mg/L | > 100 mg/L | 25 mg/L (≈ 71.5 µM) | 0.4 mg/L (≈ 1.14 µM) | > 100 mg/L
14 | CC1(C)S[C@@H]2[C@H](NC(=O)[C@H](NC(=O)N3CCNC3=O)c3ccccc3)C(=O)N2[C@H]1C(=O)O [azlocillin, reference compound] |  |  |  |  |  |  |  | 6.25 mg/L (≈ 13.5 µM) | 6.25 mg/L (≈ 13.5 µM) | 6.25 mg/L (≈ 13.5 µM) | 6.25 mg/L (≈ 13.5 µM) | 50 mg/L (≈ 108 µM) | 0.4 mg/L (≈ 0.867 µM) | 25 mg/L (≈ 54.2 µM)
15 | C[C@@H](O)[C@H]1C(=O)N2C(C(=O)O)=C(S[C@@H]3CN[C@H](C(=O)N(C)C)C3)[C@H](C)[C@H]12 [meropenem, reference compound] |  |  |  |  |  |  |  | 0.04 mg/L (≈ 0.104 µM) | 0.04 mg/L (≈ 0.104 µM) | 0.4 mg/L (≈ 1.04 µM) | 0.2 mg/L (≈ 0.522 µM) | 0.06 mg/L (≈ 0.156 µM) | 0.1 mg/L (≈ 0.261 µM) | > 100 mg/L
